This note sets out measurements from patent US5686495A, “Substituted hydrazinedicarboximidamides and methods of use thereof” (Cambridge NeuroScience, Inc., priority 1995, dated 1997).

Test [1] relates to hippocampal slices (Schaffer collateral synaptic potentials). In words: Hippocampal slice electrophysiology of excitatory synaptic transmission (field EPSP, population spikes). To be noted: for reversibility of effect: following washout. Also noted: species or system Sprague-Dawley rats. The procedure:
Transverse sections of hippocampus were obtained from 4-6 week old Sprague-Dawley rats and maintained under standard conditions. […] Extracellular excitatory post synaptic potentials (EPSP's) were recorded by placing a saline-filled glass microelectrode in either the stratum radiatum or stratum lacunosum. Population spikes were recorded by placing an electrode in the stratum pyramidole.

In test [2] the test system is 3H-glutamate release from rat brain synaptosomes. Description: Inhibition of K+-evoked 3H-glutamate release from synaptosomes (rapid superfusion). The test is classed as cell-based. As to the method:
To study the release of presynaptic ^3 H-glutamate, synaptosomes from young rats were used. CD Male rats of 4 to 6 weeks (50-75 g) were used for the preparation of synaptosomes. Rats were killed by decapitation with guillotine and the skull bone was opened in the center with the pointed blade of dissection scissors. The bone is then peeled away with a bone cutter and the brain is pried with a micro spatula. The cerebellum is removed and the rest of the brain is placed in 35 ml of 0.32M Sucrose solution and homogenized in a Thomas glass teflon homogenizer C at the maximum power setting (about 450 rpm) with 16 strokes. The pestle is rinsed with 5 ml of sucrose solution and added to the homogenate. The homogenate is centrifuged for 10 min at 3500 rpm (1500 g) in a SS-34 rotor in Sorvall RC-5B. The resulting pellet (P1) is discarded and the supernatant (S1) is recentrifuged for 20 min at 8700 rpm (8500 g). The supernatant (S2) is discarded and the pellet (P2) is resuspended in 5 ml of 0.32M sucrose and hand homogenized with 4 strokes (Thomas C) and the volume was made up to 8 ml. This homogenate was layered on 20 ml of 0.8M sucrose solution in two centrifuge tubes and spun for 25 minutes at 8700 rpm (8500 g). At the end of this spin, most of the myelin stays at the interphase of 0.32M and 0.8M sucrose and mitochondria pellet as a brown pellet. The synaptosomes are dispersed in the 0.8M sucrose. Using a 10 ml pipette, the 0.8M sucrose layer is collected (without disturbing the top myelin layer or the pellet) and diluted slowly with an equal volume of chilled basal buffer, while stirring gently with a Pasteur pipette. This diluted solution is centrifuged for 10 min at 10,000 rpm (12,000 g) and the pellet is resuspended in 1.5 ml of basal buffer and hand-homogenized in a Wheaton glass-glass 7 ml homogenizer with 8 strokes.
The synaptosomal homogenate is diluted 1 ml to 10 ml with basal buffer. This dilution gives a protein concentration of 500 to 600 μg/ml. One hundred μl of this diluted prep with 50-60 μg of protein is used for each superfusion event. […] The diluted synaptosomal solution was kept on ice until the end of the experiment.
^3 H-glutamate (purchased from NEN) is stored in the refrigerator. Pipette 6 μl ([…]; 40 to 55 Ci/mmol) into a disposable test tube. Add 100 μl of diluted prep and mix gently on vortex and incubate at 30° C. for 10 min. ^3 H-glutamate is taken up by sodium-coupledglutamate transporter present in synaptosomal membranes. After 10 min, dilute the incubation mixture with 690 μl of basal buffer. This solution is then transferred in Tygon tubing that is connected to the synaptosome loading chamber. Using a syringe filler with air, the solution is forced through the Millipore SC--GF/F--Millipore SC filter sandwich. These filters retain the synaptosomes and the solution flows through.
An important component of the superfusion setup is the custom made stainless steel "General Valve" three-valve solenoid operated superfusion chamber with an outlet for the effluent. The three inlets are connected to stainless steel buffer reservoirs that contain (1) wash buffer, (2) control buffer and (3) experimental buffer which are kept under 40 psi of nitrogen gas through teflon tubing connections. The superfusion is controlled through a menu-driven program on an Apple IIe computer. See Turner, J. T. et al., Anal. Biochem. 178:8-16 (1989), and U.S. Pat. No. 4,891,185, the disclosures of which are fully incorporated by reference herein.
The superfusion chamber has a teflon bushing and a stainless steel washer fixed with the flat surface facing the filters. A GF/B filter disc is placed first in the chamber to eliminate the switching related artifacts. The synaptosome loaded sandwich is then placed facing the synaptosomes into the flow followed by RA filter, stainless steel screen and a washer with the flat side facing the screen.

The subject of test [3] is potassium-stimulated 45Ca uptake of synaptosomes. Description: Potassium-stimulated 45Ca uptake into synaptosomes. In kind it is cell-based, rat. The procedure: Several compounds were also tested to determine whether the Ca^2+ dependent and independent components of glutamate release are related to the blockage of ^45 Ca uptake. Calcium uptake is one step in the cascade of events which occur in neuronal cell death from ischemia. See Bassaclough and Leach, Current Patents Ltd., 2-27. The Ca-flux protocol is as follows. Rat brain synaptosomes were prepared according to Hajos, Brain Res. 93:485 (1975). Synaptosomes were suspended in low potassium "LK" buffer (containing 3 mM KCl) at 2 mg/ml. […] After 5 seconds, the ^45 Ca flux was stopped with 0.9 ml quench solution (LK+10 mM EGTA). The solution was filtered under vacuum and the filters washed with 15 ml of quench buffer. The effect of drug is expressed as % inhibition (or block) of control potassium-stimulated ^45 Ca influx. This method is an adaptation of the method disclosed by Nachsen and Blaustein, J. Physiol. 361:251-268 (1985).

For test [4], the system named is sodium channels in N1E-115 neuroblastoma cells. In words: Whole cell sodium currents in voltage clamped N1E-115 neuroblastoma cells. The test is classed as cell-based. The source says: Whole cell sodium currents were elicited in voltage clamped N1E-115 neuroblastoma cells, using the stimulus protocol shown on the top of FIG. 7.
The subject of test [5] is ω-conotoxin-sensitive N-type calcium channels. In words: Electrophysiology on N-type calcium channels of single dorsal root ganglion cells. The test is classed as cell-based, bullfrog. The procedure: Single bullfrog dorsal root ganglion cells, which express ω-conotoxin-sensitive N-type calcium channels, were treated with 5 uM of N,N'-di(acenaphthyl) guanidine. The solution also contained (in mM) CsCl, 90; creatine phosphate, 5; MgATP, 5; tris GTP, 0.3; EGTA, 10; HEPES, 10; pH 7.2. […] Calcium channel rundown during the recording period may account for the lack of complete reversal of inhibition. This further supports the hypothesis that certain substituted guanidines inhibit neurotransmitter release by […] presynaptic calcium channels.

For test [6], the target named is sigma receptor. Description: Sigma receptor binding against 3H-DTG.
Test [7] concerns Ca2+-dependent glutamate release stimulated with the sodium channel activator veratridine. Description: Glutamate release of synaptosomes depolarized with veratridine. In kind it is cell-based. The following applies: various concentrations.
The mark [8] stands for this setting: Rattus norvegicus, read-out: Inhibition of Glutamate Release (Persistent Component), % Inhibition @ 10 uM.
[9] abbreviates: Rattus norvegicus, read-out: Inhibition of Glutamate Release (Persistent Component), IC50.
Setting [10] is: Rattus norvegicus, read-out: Inhibition of 45Ca Uptake, % Inhibition @ 10 uM (SEM).
[11] abbreviates: bath application, listed as N,N'-di(5-acenaphthyl)guanidine, Hydrobromide.
Where [12] appears, read: Rattus norvegicus, read-out: relative level of glutamate release.
Where [13] appears, read: Rattus norvegicus; read-out: Inhibition of 45Ca Uptake, IC50.
Setting [14] is: Rattus norvegicus; FIG. 6 curve fits; read-out: IC50, inhibition of potassium-stimulated Ca uptake of synaptosomes (FIG. 6).
The mark [15] stands for this setting: Rattus norvegicus, read-out: inhibition of glutamate release.

Entries after “also recorded” stand apart in the source; their conditions may differ. Where a name gives a salt, the structure may show the parent alone. Read-outs that look alike come from different tables or passages of the source.

In the case of `Nc1ncnc2c1ncn2[C@@H]1O[C@H](CO)[C@@H](O)[C@H]1O` [adenosine, reference compound], the inhibition at 1000 µM in test [1] (Rattus norvegicus, 1 mM, bath application, read-out: reduction of field EPSP amplitude) turned out to be 90%. Moreover, in test [1] (bath application), the “effect on field EPSP” value is “almost completely eliminated field EPSP's” and the “effect on population spikes” value is recorded as “totally blocked”. In addition, the reversibility of effect entry in test [1] is recorded as “fully reversible following washout”.

The term IC50 denotes the concentration that gives 50% inhibition. Regarding `Br.N=C(Nc1ccc2c3c(cccc13)CC2)Nc1ccc2c3c(cccc13)CC2` [N,N'-Bis(5-acenaphthyl)guanidine, N,N'-Bis (5-Acenaphthyl)Guanidine Hydrobromide], the “inhibition of Ca2+-dependent [3H]glutamate release (FIG. 3)” value in test [2] (0, 1, 3, 10 uM; K+ depolarization) is listed as “potent inhibitor of glutamate release”. Further, in test [2] (3-10 uM), the “selectivity between persistent and transient component of Ca2+-dependent glutamate release” value is “blocks the persistent component of Ca^2+ -dependent glutamate release more than the initial transient component”. Besides, the inhibition at 10 µM was 92% in test [2] (setting [8]) and 46% in test [3] (setting [10]). Moreover, the IC50 was found to be 3 µM in test [2] (setting [9]) and 10.7 ± 3 µM in test [3] (Rattus norvegicus, read-out: Inhibition of 45Ca Uptake, IC50). Also, the activity at 10 µM in test [3] (Rattus norvegicus, read-out: % Uptake vs. Control) worked out at 43%. For the same molecule, in test [4] (30 uM, pressure ejection, N=5 cells), the “block of inward sodium currents, average” value is listed as 40%. In addition, the “inhibition of inward sodium current in the cell shown (FIG. 7)” value in test [4] (30 uM, single cell of FIG. 7) turned out to be 49%. For the same molecule, the “reversal of sodium current block” value in test [4] (following washout) is reported as “partially reversed following washout”. For the same molecule, the “inhibition of N-type calcium channel current” value in test [5] (5 uM) was “about 40%”; in test [5] (20 uM), “inhibited nearly all of the current”. Also, the “reversal of N-type current inhibition” value in test [5] (in about 6 minutes) is “Most of the inhibition was reversed”. Further, the inhibition at 20 µM is 80 to 90% in test [1] (Rattus norvegicus, bath application, read-out: reduction of field EPSP amplitude) and 80 to 90% in test [1] (Rattus norvegicus, bath application, read-out: reduction of population spike amplitude). Also, the “effect on field EPSP” value in test [1] (setting [11]) is recorded as “reversibly blocked; also recorded: almost completely eliminated the field EPSP”. In test [1] (setting [11]), the “effect on population spikes” value is “completely eliminated population spikes; also recorded: reversibly blocked these population spikes”. For the same molecule, the reversibility of effect result in test [1] (listed as N,N'-di(5-acenaphthyl)guanidine, Hydrobromide) is listed as “completely reversible following washout; also recorded: fully reversible following washout; also recorded: fully recovered following washout”.

On to `N=C(Nc1cccc2ccccc12)Nc1cccc2ccccc12` [N,N'-di-(1-naphthyl)guanidine], for which, in test [2] (setting [8]), the inhibition at 10 µM amounted to 31%. For the same molecule, in test [2] (setting [12]), the activity at 30 µM was 19% and the activity at 100 µM came to 29%. The inhibition at 10 µM in test [3] (setting [10]) turned out to be 27%. The IC50 in test [3] (setting [13]) was found to be 23.6 ± 10 µM.

Regarding `C1CCC(N=C(NNC(=NC2CCCCC2)NC2CCCCC2)NC2CCCCC2)CC1` [N,N',N",N"'-Tetracyclohexyl-Hydrazinedicarboximidamide], the inhibition at 10 µM in test [2] (setting [8]) was found to be 67%; in test [3] (setting [10]), 74%. In addition, in test [2] (setting [12]), the activity at 30 µM is 51%. The IC50 in test [3] (setting [14]) was determined as 3.3 µM; in test [3] (setting [13]), 3 µM.

As to `N=C(Nc1ccc(O)c2ccccc12)Nc1ccc2c3c(cccc13)CC2` [N-(5-acenaphthyl)-N'-(4-hydroxynaphthyl)guanidine], the inhibition at 10 µM was determined as 25% in test [2] (setting [8]) and 35% in test [3] (setting [10]).

Consider `N=C(NC1C2CC3CC(C2)CC1C3)NC1C2CC3CC(C2)CC1C3` (stereo not shown) [N,N'-di-(adamantan-2-yl)guanidine, N,N'-(Adamantan-2-yl)guanidine Hydrochloride], for which the inhibition at 10 µM in test [2] (setting [8]) was found to be 60%; in test [3] (setting [10]), 35%. The inhibition at 30 µM in test [2] (setting [15]) is 60%. The activity at 30 µM in test [2] (setting [12]) stood at 40%. Moreover, in test [2] (setting [12]), the activity at 100 µM was determined as 20%. Besides, the IC50 in test [3] (setting [13]) came to 16.1 ± 10 µM; in test [6], 0.0927 µM. For the same molecule, the “inhibition of veratridine-stimulated glutamate release (FIG. 5)” value in test [7] was “inhibition of glutamate release in a dose dependent manner”.

Turning to `N=C(Nc1ccc(F)c2ccccc12)Nc1ccc2c3c(cccc13)CC2` [N-(3- and 5-Acenaphthyl)-N'-(4-Fluoronaphthyl)-Guanidine.HCl], the inhibition at 10 µM came out at 85% in test [2] (setting [8]) and 47% in test [3] (setting [10]). In test [2] (setting [9]), the IC50 was below 5 µM.

`N=C(Nc1ccc2c3c(cccc13)CC2)NC1C2CC3CC(C2)CC1C3` (stereo not shown) [N-(Adamantan-2-yl)-N'-(5-acenaphthyl)guanidine]: the inhibition at 10 µM was 63% in test [2] (setting [8]) and 69% in test [3] (setting [10]). The IC50 is 5 µM in test [2] (Rattus norvegicus; read-out: Inhibition of Glutamate Release (Persistent Component), IC50) and 4.8 µM in test [3] (setting [13]).

With `N=C(NC12CC3CC(CC(C3)C1)C2)NC12CC3CC(CC(C3)C1)C2` [N,N'-di-(adamantan-1-yl)guanidine], in test [2] (0, 10, 30, 100 uM; 2.1 second K+ depolarizing pulse), the “concentration dependence of 3H-glutamate release (FIG. 2)” value is recorded as “decreasing release of glutamate from synaptosomes”. The inhibition at 10 µM in test [2] (setting [8]) worked out at 49%; in test [3] (setting [10]), 25%. The inhibition at 30 µM in test [2] (setting [15]) was found to be 55%. Besides, the activity at 30 µM in test [2] (setting [12]) came to 45%. The activity at 100 µM in test [2] (setting [12]) was determined as 13%. Besides, the IC50 in test [3] (setting [14]) is 6.6 µM; in test [3] (setting [13]) it was 25 ± 9 µM; in test [6], 0.0165 µM.
